Test results: patent US20180332850A1, “METHOD FOR IMPROVING EARLINESS IN COTTON” (Robert Bosch GmbH, priority 2015, published 2018)

Test system: Cotton (Gossypium hirsutum) of the variety DP 1050 B2BRF
Assay: Field trial: percentage of open bolls in cotton after in-furrow application (earliness)
Type: in vivo
Conditions: application rate 841 g/ha, in furrow by spreading, visual inspection
Description: Cotton (Gossypium hirsutum) of the variety DP 1050 B2BRF was planted in a field trial in Brooks, Ga., United States in May 2013. Temik (comprising the active ingredient Aldicarb ([2-methyl-2-(methylthio) propionaldehyde O-(methylcarbamoyl)oxime]) and Fluopyram in combination with Imidacloprid (Velum® Total, Bayer CropScience) were applied in furrow at the same day. Temik was used for controlling insects in cotton and was provided as a Granule Release formulation with 15% (w/w) active ingredient and was applied at a rate of 841 g of active ingredient/ha by spreading. Fluopyram in combination with Imidacloprid (Velum® Total) was used as a Soluble Concentrate (SC) formulation with a concentration of 440 g/l active ingredient in total, thereof 180 g/l Fluopyram and 260 g/l Imidacloprid and these combinations were applied separately at three different rates of 321.5 g of total active ingredient/ha, 450 g of total active ingredient/ha, and 578.7 g of total active ingredient/ha by spraying. The percentage of open bolls was assessed by visual inspection at three times after application.

Question: `CNC(=O)ON=CC(C)(C)SC` [Aldicarb, 2-methyl-2-(methylthio) propionaldehyde O-(methylcarbamoyl)oxime] was tested. Which “percentage of open bolls, 97 Days after Application BBCH 76” value (97 days after application, BBCH 76) did it give?
Answer: 12.5%

Question: What about the “percentage of open bolls, 104 Days after Application BBCH 77” value (104 days after application, BBCH 77) of the same molecule?
Answer: 17.5%

Question: What about the “percentage of open bolls, 111 Days after Application BBCH 78” value (111 days after application, BBCH 78) of the same molecule?
Answer: 30.0%
